Reference: US5571524A, “Agent for curing ischemic myocardial disease” (Unitika Ltd., priority 1994, dated 1996)

Tests used:
Assay type in all cases: in vivo
Mongrel dogs [1] = assay: Amelioration of myocardial ischemia: coronary blood flow, fractional shortening and perfusion pressure during factitious 1/3 blood flow; conditions: for Myocardial fractional shortening / Coronary blood flow / Coronary perfusion pressure: ischemia (1/3 blood flow); for Myocardial fractional shortening: control 26.9, 1/3 control 5.3; for Coronary blood flow: control 91.3, 1/3 control 21.2; for Coronary perfusion pressure: control 93.0, 1/3 control 57.0
Experimental: (§1) Mongrel dogs weighing 18-22 kg were anesthetized with pentobarbital sodium (30 mg/kg). The trachea was intubated, and the dog was ventilated with room air with oxygen. The chest was opened through the left fifth intercostal space, and the heart was suspended in a pericardial cradle. The left anterior descending coronary artery was cannulated and perfused with blood via the carotid artery through an extracorporeal bypass tube after heparinization (500 units/kg). Coronary blood flow (CBF) was measured with an electromagnetic flow probe attached to the bypass tube, and coronary perfusion pressure (CPP) was monitored at the tip of the coronary arterial cannula. A small, short collecting tube was cannulated into a small coronary vein near the center of the perfused area to sample coronary venous blood. The drained venous blood was collected in a reservoir placed at the level of the left atrium. A high fidelity of left ventricular pressure and its first derivative were measured by a micromanometer (model P-5, Konigsberg Instruments, Inc., Pasadena, Calif.) placed in the left ventricular cavity through the apex. A pair of ultrasonic crystals was placed in the center of the perfused area about 1 cm apart to measure myocardial segment length with an ultrasonic dimension gauge (5 MHz, Schuessler, Cardiff by the Sea, Calif.). End-diastolic length (EDL) was determined at the R wave of the electrocardiogram, and end-systolic length (ESL) was determined at the minimal dP/dt. Fractional shortening was calculated by (EDL-ESL)/EDL as an index of myocardial contractility of the perfused area.
(§2) After stabilization, CPP was decreased with partial occlusion of the bypass tube to the left anterior descending coronary artery such that CBF decreased to one third of the control flow. The low CPP was maintained during this test.
(§3) Blood sampling from coronary veins and coronary arteries was conducted. Then the intracoronary administration of Ap4A was stopped. The lowered coronary perfusion pressure was further maintained for 10 minutes.
(§4) The above test was repeated by replacing Ap4A with adenosine with the dosage thereof being changed to 4, 8 and 16 μg/kg/min.

Mongrel dogs [2] = assay: Lactate extraction ratio and pH of venous blood during ischemia; conditions: for pH of venous blood / Lactate extraction ratio: ischemia (1/3 blood flow); for pH of venous blood: control 7.46, 1/3 control 7.23; for Lactate extraction ratio: control 26.5, 1/3 control -67.9
Experimental: as §1
Namely, the lactate extraction ratio was obtained by coronary arteriovenous difference in lactate concentration multiplied by 100 and divided by arterial lactate concentration.
as §2, §3, §4
As mentioned previously, in the above-mentioned experimental systems, lactate extraction ratio and pH of venous blood were measured at the time of the intracoronary administration of Ap4A and also at the time of the intracoronary administration of adenosine.

Mongrel dogs [3] = assay: Coronary blood flow increase effect, nonischemic condition; conditions: for Coronary blood flow: 8-SPT and/or L-NAME alone, before Ap4A, N = 1 - 2
Experimental: as §1
After stabilization, a physiological saline solution […], with the dosage thereof increased to 0.5, 1, 2, 4 and 8 μg/kg/min, and the changes in coronary blood flow were measured in order to assess the coronary blood flow increase effect of Ap4A.
8-sulfophenyltheophylline (hereinafter referred to as 8-SPT) serving as adenosine P1 receptor antagonist with a dose of 25 μg/kg/min was tested.
The above test was also repeated by replacing 8-SPT with N^G -nitro-L-arginine methyl ester (hereinafter referred to as L-NAME) serving as an endothelial-cell-induced nitric oxide (NO) synthesis inhibitor with a dose of 3 μg/kg/min(ic).
The above test was then repeated using 8-SPT and L-NAME in combination.

[4] = adenosine 4 μg/kg/min intracoronary
[5] = adenosine 8 μg/kg/min intracoronary
[6] = adenosine 16 μg/kg/min intracoronary

| SMILES | Myocardial fractional shortening (Mongrel dogs [1]; adenosine 4 μg/kg/min) [%] | Coronary blood flow (Mongrel dogs [1]; adenosine 4 μg/kg/min) [ml/100 g/min] | Coronary perfusion pressure (Mongrel dogs [1]; adenosine 4 μg/kg/min) [mmHg] | Myocardial fractional shortening (Mongrel dogs [1]; adenosine 8 μg/kg/min) [%] | Coronary blood flow (Mongrel dogs [1]; adenosine 8 μg/kg/min) [ml/100 g/min] | Coronary perfusion pressure (Mongrel dogs [1]; adenosine 8 μg/kg/min) [mmHg] | Myocardial fractional shortening (Mongrel dogs [1]; adenosine 16 μg/kg/min) [%] | Coronary blood flow (Mongrel dogs [1]; adenosine 16 μg/kg/min) [ml/100 g/min] | Coronary perfusion pressure (Mongrel dogs [1]; adenosine 16 μg/kg/min) [mmHg] | changes in coronary blood flow and myocardial fractional shortening (Mongrel dogs [1]; ischemia, adenosine 4, 8 and 16 μg/kg/min) | amelioration effect on myocardial ischemia (Mongrel dogs [1]; mongrel dogs in a state of excessive ischemia) | amelioration of lactate extraction ratio and pH (Mongrel dogs [2]; ischemia) | pH of venous blood (Mongrel dogs [2]; [4]) | Lactate extraction ratio (Mongrel dogs [2]; [4]) [%] | pH of venous blood (Mongrel dogs [2]; [5]) | Lactate extraction ratio (Mongrel dogs [2]; [5]) [%] | pH of venous blood (Mongrel dogs [2]; [6]) | Lactate extraction ratio (Mongrel dogs [2]; [6]) [%] | Coronary blood flow (Mongrel dogs [3]) [ml/100 g/min] | inhibition of the effect of adenosine (Mongrel dogs [3]; 8-SPT 25 μg/kg/min) |
| --- | --- | --- | --- | --- | --- | --- | --- | --- | --- | --- | --- | --- | --- | --- | --- | --- | --- | --- | --- | --- |
| Nc1ncnc2c1ncn2[C@@H]1O[C@H](CO)[C@@H](O)[C@H]1O [Adenosine, adenosine] | 5.9 | 18.2 | 56.0 | 3.9 | 18.2 | 56.0 | 5.3 | 18.2 | 56.0 | no substantial changes in coronary blood flow and myocardial fractional shortening | unaffected | no such amelioration effects | 7.19 | -73.2 | 7.25 | -69.8 | 7.22 | -73.2 | – | – |
| COC(=O)[C@@H](N)CCCNC(=N)N[N+](=O)[O-] [L-NAME, N^G -nitro-L-arginine methyl ester, reference compound] | – | – | – | – | – | – | – | – | – | – | – | – | – | – | – | – | – | – | 90.3 | – |
| Cn1c(=O)c2[nH]c(-c3ccc(S(=O)(=O)O)cc3)nc2n(C)c1=O [8-SPT, 8-sulfophenyltheophylline, reference compound] | – | – | – | – | – | – | – | – | – | – | – | – | – | – | – | – | – | – | 93.7 | completely inhibited |
